According to patent US20060280725A1, “Compositions and methods of treating and diagnosing hepatoma” (priority 2003, published 2006):
Read-outs that look alike come from different tables or passages of the source.

Tests used:
[1] = tested on: System A & N isoforms; settings: read-out: deduced Km values for glutamine; cited from earlier work
[2] = tested on: PLC/PRF/5; experiment: Glutamine transport assay (initial-rate uptake, kinetic analysis); assay type: cell-based, human
Experimental: (§1) Glutamine Transport Assays. Measurement of initial-rate glutamine uptake was carried out via the cluster-tray method originally described by Gazzola (21) as reported previously (6, 9). Briefly, after trypsinization hepatoma cells were plated at a density of 1×10^5 cells/well in 24-well culture plates (Costar Corp., Cambridge, Mass.) and allowed to grow to >80% confluence, typically one to two days later. For initial-rate measurements, the radiotracer utilized was L-[G-^3H] glutamine (Amersham Corp., Arlington Heights, Ill.) at 4 μCi/ml, in the presence of unlabeled L-glutamine at 50 μM. For kinetic studies, the amount of unlabeled glutamine in the transport buffer varied from 10 μM to 10 mM. All transport measurements were carried out at 37° C. and were terminated after 30 s by three rapid washes with an ice-cold phosphate-buffered saline solution. Intracellular radiolabeled glutamine was extracted with 0.2 ml/well of 0.2% sodium dodecyl sulfate (SDS) and 0.2 N NaOH; after 1 h, 0.1 ml of the lysate was neutralized with 10 μl of 2 N HCl and subjected to scintillation spectrophotometry in a Packard TopCount™ (Packard Instruments, Meriden, Conn.). The remaining lysate was utilized for the determination of cellular protein by the bicinchoninic acid (BCA) method (Pierce Chemical Co., Rockford, Ill.). Rates of glutamine transport were calculated from the cpm per sample, the specific activity of the uptake mix (in cpm/nmol) and normalized to cellular protein content in a Microsoft Excel® spreadsheet program. Transport values obtained in the absence of extracellular Na^+ (diffusion and Na^+-independent uptake) were subtracted from those in the presence of Na^+ (total uptake) to yield Na^+-dependent rates which are reported in units of nmol•mg^−1 protein•30 s^−1. All transport values depicted are the average±standard deviation of four separate determinations. Kinetic analysis of Eadie-Hofstee linearized transport data (v vs. v/[L-GLN]) was performed by regression analysis (Cricket Graph®, Computer Associates, Islandia, N.Y.). Nonlinear regression analysis was performed with DataDesk (Data Description, Inc. Ithaca, N.Y.) and Excel for two component Michaelis-Menten kinetics: v=((Vmax1×[S])/(Km1+[S])+(Vmax2×[S])/(Km2+[S])).
(§2) Therefore, two component nonlinear regression analyses were performed on the Na^+-dependent transport kinetic data, where they were adequately resolved into high and low affinity components in all cell lines under study. The results are graphically depicted in FIG. 1 as insets. […] Possibilities for each cell line will be offered discussion based on the molecular analyses described below.

[3] = tested on: Focus; experiment: as above; assay type: cell-based, human
Experimental: as §1, §2

[4] = tested on: Hep3B; experiment: as above; assay type: cell-based, human
Experimental: as §1, §2

[5] = tested on: human fetal liver fibroblasts (HFLF); experiment: Glutamine transport assay (inhibition and kinetic analysis); assay type: cell-based
Experimental: FIG. 5. Functional and molecular assessment of ATB^0 expression in human fetal liver fibroblasts (HFLF) and cirrhotic liver tissue. A) Amino acid inhibition analysis of Na^+-dependent glutamine uptake in human fetal liver fibroblasts. Fibroblasts were isolated and cultured as described in the Methods section, and amino acid inhibition analysis of 50 μM L-glutamine uptake was carried out as described in FIG. 1. *p<0.010 vs. control. The Eadie-Hofstee plot of the kinetic analysis is shown as an inset, with the dashed lines representing the resolved high and low affinity components of the composite data (solid line). The derived values of the kinetic constants for each component are given in the Results section. B) Northern blot analysis of ATB^0 expression in HFLF. Radiolabeled cDNA probes were generated with the Megaprime™ kit as described in the Methods section, and hybridized to 20 μg of total RNA from HFLF. Exposure time was 24 h. C) RT-PCR and restriction enzyme analysis of ATB^0 expression in HFLF, normal and cirrhotic liver. The analysis was carried out exactly as described in FIG. 3. Omission of RT is shown for the normal liver sample. D) Expression of ATB^0 in biopsies from a patient with liver cirrhosis and hepatocellular carcinoma (HCC). Northern blot analysis of ATB^0 & SN1 expression were performed on RNA extracted from the snap-frozen biopsies. RNA isolation and northern blot analysis was carried out as described in the Methods section, with full-length riboprobes used for detection of transporter mRNA. Exposure times for the blots are shown to illustrate relative expression levels for ATB^0 in each of the samples.
as §1, with “v=((Vmax1×[S])/(Km1+[S])+(Vmax2×[S])/(Km2+[S])). […]” for “v=((Vmax1×[S])/(Km1+[S])+(Vmax2×[S])/(Km2+[S])).”

[6] = read-out: Km, high affinity system
[7] = read-out: Km, low affinity system
[8] = read-out: Km, high affinity component

Km [2, 6]: 23 µM | Km [2, 7]: 775 µM | Km [3, 8]: 122 µM | Km [3, 7]: 1200 µM | Km ([4]; Na+-dependent glutamine transport, read-out: Km, low affinity system): 1000 µM | Km [4, 6]: 90 µM | Km [5, 8]: 163 µM | Km ([5]; read-out: Km, low affinity component): 1200 µM
Structure (SMILES): NC(=O)CC[C@H](N)C(=O)O [glutamine, L-glutamine]
Km [1]: 1000 to 3000 µM | Vmax, high affinity system [2]: 0.82 nmol•mg^−1 protein•30 s^−1 | Vmax, low affinity system [2]: 3.9 nmol•mg^−1 protein•30 s^−1 | Vmax, high affinity component [3]: 2.2 nmol•mg^−1 protein•30 s^−1 | Vmax, low affinity system [3]: 2.7 nmol•mg^−1 protein•30 s^−1 | Vmax, high affinity system [4]: 3.0 nmol•mg^−1 protein•30 s^−1 | Vmax, low affinity system [4]: 4.5 nmol•mg^−1 protein•30 s^−1 | Vmax, high affinity component [5]: 5.3 nmol•mg^−1 protein•30 s^−1 | Vmax, low affinity component [5]: 3.1 nmol•mg^−1 protein•30 s^−1
